Measurements: PMC5618672, “Rationally designed ligand‐independent peptide inhibitors of TREM‐1 ameliorate collagen‐induced arthritis” (Journal of Cellular and Molecular Medicine, 2017)

What was measured:
[1] = tested on: joints of mice with CIA; assay: Histology assessment of joints in CIA; format: in vivo, mouse (DBA/1); set-up: dose or concentration left out as unconfirmed
Protocol: Animal studies were performed by Bolder BioPATH (Boulder, CO, USA). CIA was induced in male 6‐ to 7‐week‐old DBA/1 mice by immunization with bovine type II collagen as previously described 19. Briefly, mice were injected intradermally with 100 μl of Freund's complete adjuvant containing 250 μg of bovine type II collagen (2 mg/ml final concentration) at the base of the tail on day 0 and again on day 21. On day 24, mice were randomized by body weight into treatment groups. At enrolment on day 24, the mean mouse weight was 20 g. Arthritis onset occurred on days 26‐38. Starting day 24, mice were injected intraperitoneally ([…]), GF9‐sHDL (2.5 mg/kg), GA/E31‐dHDL ([…]), GA/E31‐sHDL ([…]) or with PBS. Mice were weighed on study days 24, 26, 28, 30, 32, 34, 36 and 38 (prior to necropsy). Daily clinical scores were given on a scale of 0–5 for each of the paws on days 24–38 using previously described criteria 19. […]
At the end of study, fore paws, hind paws and knees were harvested, fixed in 10% neutral buffered formalin for 1–2 days, and then decalcified in 5% formic acid for 4–5 days before standard processing for paraffin embedding. […] The joints were then assessed using 0–5 scale for inflammation, pannus formation, cartilage damage, bone resorption and periosteal new bone formation as previously reported 19. A summed histopathology score (sum of five parameters, 0–25 scale) was also determined.

[2] = tested on: mice with CIA; assay: Collagen‐induced arthritis (CIA) model, clinical arthritis score; format: in vivo, mouse (DBA/1); details: 0.1 mg/kg, positive control; data not shown
Protocol: Animal studies were performed by Bolder BioPATH (Boulder, CO, USA). CIA was induced in male 6‐ to 7‐week‐old DBA/1 mice by immunization with bovine type II collagen as previously described 19. Briefly, mice were injected intradermally with 100 μl of Freund's complete adjuvant containing 250 μg of bovine type II collagen (2 mg/ml final concentration) at the base of the tail on day 0 and again on day 21. On day 24, mice were randomized by body weight into treatment groups. At enrolment on day 24, the mean mouse weight was 20 g. Arthritis onset occurred on days 26‐38. Starting day 24, mice were injected intraperitoneally (i.p.) daily for 14 consecutive days with GF9 (2.5 and 25 mg/kg), GF9‐G (25 mg/kg), GF9‐dHDL (2.5 mg/kg), GF9‐sHDL (2.5 mg/kg), GA/E31‐dHDL (dose equivalent to 4 mg of GF9/kg), GA/E31‐sHDL (dose equivalent to 4 mg of GF9/kg) or with PBS. Mice were weighed on study days 24, 26, 28, 30, 32, 34, 36 and 38 (prior to necropsy). Daily clinical scores were given on a scale of 0–5 for each of the paws on days 24–38 using previously described criteria 19. On day 38, mice were killed for necropsy.

`C[C@@H]1C[C@H]2[C@@H]3CCC4=CC(=O)C=C[C@]4(C)[C@@]3(F)[C@@H](O)C[C@]2(C)[C@@]1(O)C(=O)CO` [dexamethasone] was tested, and the “joint lesions (histopathology)” value ([1]; arthritic mice, day 38, not shown) was “No lesions were observed”, the “reduction of summed histopathology scores compared to vehicle‐treated mice” value ([1]; data not shown) was 99% and the “anti‐arthritic effect relative to GF9 at 25 mg/kg” value [2] was “comparable”.
